# “Also recorded” adds a separate entry of the source.
# How the values were obtained:
# Format in all cases: in vivo, human
# [1] = system: patients on chronic methadone therapy for pain; test: Piper survey for fatigue in chronic pain patients on methadone, with and without NAC
# Protocol: (§1) 6 patients who have been on chronic methadone therapy for pain treatment and who are also taking NAC (600 mg/day) were studied. Patients were taking a range of methadone doses (30-160 mg/day).
# (§2) This is a descriptive case study of 6 patients. A blood sample was obtained and used to measure serum methadone levels was obtained on methadone/NAC therapy. NAC was supplied by the investigator from assayed commercially available supply and pill counts were done to assure patient compliance. The patients were on the same methadone dose for over seven days; this ensures steady state levels of methadone had been achieved. The patients were then be asked to stop taking NAC for 7 days and were asked to return to the clinic for a second blood draw that measured serum methadone levels. Blood was collected in the offices of BAA. Three additional patients were studied, after the results from sera of the initial patients were assayed; these patients had baseline pain and fatigue assessments with the Piper Survey and were subsequently treated with NAC, serum determinations were sent, but have not as yet been completed. Thus patients on methadone were studied with NAC withdrawal (First Group) and NAC added to treatment (second group). The medical chart was reviewed for current medications, including over the counter medications, supplements, and herbal preparations; health conditions and available laboratory evaluations of electrolytes. The patient's age and gender was recorded.
# (§3) BAA offices: A 5 ml blood sample will be obtained on methadone/NAC. Blood was drawn prior to a normally timed dose of methadone. The patient was instructed to discontinue taking NAC and returned in 7 days, at the same time, for a blood draw. This was also drawn prior to a normally timed dose of methadone. Patients completed a Piper survey for fatigue and distress on each occasion prior to the blood draw. The Piper score reflects a valid measure of fatigue. Higher numbers for the score are indicative of greater fatigue. Within the Piper survey a pain measure is also recorded. Both pain and fatigue scores were measured at each of the clinical visits one week apart. Trained study personnel completed chart review. Analysis of serum concentrations of methadone was completed at the Bioanalytical Core Lab at the Arizona Health Science Center (Sarver Heart Center, University of Arizona, Tucson).
# [2] = system: patients on chronic methadone therapy for pain; test: VAS pain and clinical comments in pain patients in clinical trial, with and without NAC
# Protocol: as §1, §2, §3
# [3] = system: Restless Legs Syndrome (RLS) subjects; test: Clinical use: relief of Restless Legs Syndrome symptoms; settings: clinical observation
# Protocol: The blood levels of these patients measured below detection thresholds (20 ng/ml) and well below the blood levels recorded for pain relief (300 ng/ml). The NAC dose used in the present invention was far less than the 500 mg TID dose used as a supplement in treatment of diseases of inflammation.
# [4] = system: patients with pain / restless legs syndrome; test: Case histories: NAC added to oral ketamine (pain diary, patient reports); settings: single patients; Case 1: NAC 25 mg, within 24 hours; Case 2: ketamine 150 mg/day
# Protocol: The patient maintained a diary noting their level of pain with 1 being the lowest and 10 the highest. […] The patient was then administered 25 mg of NAC to be taken in combination with oral ketamine.
# [5] = on methadone without NAC (M001-M003 NAC stopped 7 days; M004-M006 baseline before NAC)
# [6] = cases summarized and a few additional cases
smiles,measurement,setting,value
"CCC(=O)C(CC(C)N(C)C)(c1ccccc1)c1ccccc1 (stereo not shown) [Mtd, methadone]",Fatigue (yes/no),[1]; [5],Yes
"CC(=O)N[C@@H](CS)C(=O)O [NAC, N-acetyl-cysteine]",fatigue when NAC is added to methadone,[1]; [6],Improvement in fatigue
same,Fatigue (yes/no),"[1]; on methadone with NAC, patients M001-M006",No
same,Fatigue (yes/no),[1]; [5],Yes and No
same,medication for pain when NAC is added to methadone,[2]; [6],reduction in medication for pain
same,opioid reduction,"[2]; patient M004, after NAC added to methadone",subsequently; 30% opiod
same,Comments: change on stopping NAC,"[2]; patients M001-M003 on methadone, NAC stopped 7 days",Inc. irritabil; also recorded: Inc.pain/w
same,Comments: patient report / clinical course after NAC added,"[2]; patients M004-M006 on methadone, NAC added",Stopped all oxycondone; also recorded: “much less fatigue since starting; also recorded: “I do feel better taking NAC”
COc1ccc2c(c1)[C@]13CCCC[C@@H]1[C@H](C2)N(C)CC3 [dextromethorphan],symptoms of Restless Legs Syndrome (RLS),[3],treats restless legs syndrome
CNC1(c2ccccc2Cl)CCCCC1=O (stereo not shown) [ketamine],pain relief (patient report),[4],noted pain relief

# — patent publication US20080096872A1, “Composition for Treatment of Pain Specification” (priority 2004, published 2008)
